Data taken from PMC9088073, “Discovery of 2-Phenylquinolines with Broad-Spectrum Anti-coronavirus Activity” (ACS Medicinal Chemistry Letters, 2022).
Like-named read-outs stand apart in the source and are kept apart here. Marks after values point to notes of the source that are not given here.

Key:
SARS-CoV-2 = assay: microbe, parasite or virus in culture; assay type: cell-based
HCoV-OC43 = assay: microbe, parasite or virus in culture; assay type: cell-based; conditions: Betacoronavirus 1, OC43, HEL 299, read-out: HCoV-OC43 EC50
[1] = target: SARS-CoV-2 nsp13 helicase (Severe acute respiratory syndrome coronavirus 2, UniProt P0DTD1); assay: biochemical; assay type: biochemical; conditions: for IC50: SARS-CoV-2 nsp13 helicase-associated activity, read-out: helicase unwinding IC50
SARS-CoV-2 nsp13 ATPase = SARS-CoV-2 nsp13 ATPase (Severe acute respiratory syndrome coronavirus 2, UniProt P0DTD1); assay type: biochemical; conditions: for IC50: read-out: helicase ATPase IC50
HCoV-229E = assay: microbe, parasite or virus in culture; assay type: cell-based; conditions: Human coronavirus 229E, HEL 299, read-out: HCoV-229E EC50
in vitro [2] = conditions: chlorocebus sabaeus
SARS-CoV-2 nsp12 RdRp = SARS-CoV-2 nsp12 RdRp (Severe acute respiratory syndrome coronavirus 2, UniProt P0DTD1); assay: SARS-CoV-2 nsp12 RdRp activity, fluorescent-based assay; assay type: biochemical; conditions: in the presence of the highest concentration of tested compound (30 μM); read-out: RdRp percentage of control
in vitro [3] = conditions: human
VeroE6 cells = conditions: uninfected VeroE6 cells, MTS assay; mean ± SD of duplicate experiments
[4] = Severe acute respiratory syndrome coronavirus 2, […], mean ± SD of duplicate experiments, read-out: Anti-SARS-CoV-2 activity EC50
[5] = SARS-CoV-2 nsp13 ATPase-associated activity
[6] = in the presence of the highest concentration of tested compound (30 μM; 3 μM for SSYA10-001)
[7] = Severe acute respiratory syndrome coronavirus 2, read-out: Anti-SARS-CoV-2 activity EC50, primary screening
[8] = […], mean ± SD of duplicate experiments

CCCOc1ccc(-c2cc(OCCN(CC)CC)c3c(OC)cccc3n2)cc1 [Compound 2a]
EC50 (SARS-CoV-2; [4]): > 100 µM

NC(=O)c1ccc(Oc2ccc(C(N)=O)cc2)cc1 [OUL-355]
EC50 (SARS-CoV-2; read-out: Anti-SARS-CoV-2 activity EC50, primary screening): > 100 µM

CCCOc1ccc(-c2cc(OCCN3CCc4cc(OC)c(OC)cc4C3)c3c(OC)cc(OC)cc3n2)cc1 [Compound 6g]
EC50 (HCoV-OC43): 1500 ± 100 nM
IC50 [1]: 420 ± 230 nM
EC50 (SARS-CoV-2; [4]): 8.8 ± 5.6 µM
IC50 (SARS-CoV-2 nsp13 ATPase; [5]): > 30 µM
helicase ATPase percentage of control (SARS-CoV-2 nsp13 ATPase; [6]): 90%
EC50 (HCoV-229E): 2900 ± 50 nM
CC50 (in vitro [2]): > 100 µM
remaining activity at 30 µM (SARS-CoV-2 nsp12 RdRp): 62%

COc1cc(O)c2c(=O)cc(-c3ccc(OCCCN4CCN(C)CC4)c(N)c3)n(C)c2c1 [WRNA10]
EC50 (SARS-CoV-2; [7]): 10 µM
CC50 (in vitro [2]): 40 µM

C=CCn1c(S)nnc1CSc1ccccc1[N+](=O)[O-] [SSYA10-001, reference compound]
helicase ATPase percentage of control (SARS-CoV-2 nsp13 ATPase): >3 (90%) ^d
IC50 (SARS-CoV-2 nsp13 ATPase): > 3 µM

CCCOc1ccc(-c2cc(OCCN(CC)CC)c3cc(OC)cc(OC)c3n2)cc1 [Compound 9a]
EC50 (HCoV-OC43): 2200 ± 500 nM
EC50 (SARS-CoV-2; [4]): 13 ± 10 µM
CC50 (in vitro [3]): 43.5 ± 5.6 µM
EC50 (HCoV-229E): 3500 ± 2700 nM
CC50 (in vitro [2]): > 100 µM

CCCOc1ccc(-c2cc(OCCN3CCc4ccccc4C3)c3c(OC)cc(OC)cc3n2)cc1 [Compound 6n, 4-[2-(3,4-Dihydroisoquinolin-2(1H)-yl)ethoxy]-5,7-dimethoxy-2-(4-propoxyphenyl)quinoline]
EC50 (SARS-CoV-2; [4]): > 100 µM
Anti-SARS-CoV-2 activity EC50 (SARS-CoV-2; [8]): devoid of any activity
CC50 (in vitro [2]): > 100 µM

CCCOc1ccc(-c2cc(OCCN3CCNCC3)c3cccc(OC)c3n2)cc1 [Compound 5i]
EC50 (HCoV-OC43): 1700 ± 200 nM
EC50 (SARS-CoV-2; [4]): 7.1 ± 4.2 µM
CC50 (in vitro [3]): 8 ± 1.3 µM
EC50 (HCoV-229E): 300 ± 50 nM
CC50 (in vitro [2]): 30.3 ± 0.8 µM

CCCOc1ccc(-c2cc(OCCn3cccc3)c3ccccc3n2)cc1 [Compound 1h]
EC50 (SARS-CoV-2; [4]): > 100 µM

CCN(CC)CCOc1cc(-c2ccc(Cl)s2)nc2ccccc12 [Compound 13a]
EC50 (SARS-CoV-2; [4]): > 100 µM
Anti-SARS-CoV-2 activity EC50 (SARS-CoV-2; [8]): loss of activity

CCCOc1ccc(-c2cc(O)c3ccccc3n2)cc1 [Compound 1]
Anti-SARS-CoV-2 activity EC50, primary screening (SARS-CoV-2): completely inactive
EC50 (SARS-CoV-2; [4]): > 100 µM

CCCOc1ccc(-c2cc(OCCN(Cc3ccccc3)Cc3ccccc3)c3ccccc3n2)cc1 [Compound 1c]
EC50 (SARS-CoV-2; [4]): > 100 µM

CCCOc1ccc(-c2cc(OCCN(CC)CC)c3c(OC)cc(OC)cc3n2)cc1 [Compound 6a]
EC50 (SARS-CoV-2; [4]): > 100 µM
CC50 (in vitro [2]): 6.71 ± 3.5 µM

CCCOc1ccc(-c2cc(OCCN3CCCCC3)c3cc(OC)c(OC)cc3n2)cc1 [Compound 8k]
EC50 (HCoV-OC43): 1600 ± 200 nM
EC50 (SARS-CoV-2; [4]): 2.6 ± 1.4 µM
CC50 (in vitro [3]): 12.3 ± 1.1 µM
EC50 (HCoV-229E): 200 ± 200 nM
CC50 (in vitro [2]): 11.1 ± 1.3 µM

CCCOc1ccc(-c2cc(OCCN3CCCC3)c3c(OC)ccc(OC)c3n2)cc1 [Compound 7j]
EC50 (HCoV-OC43): 1800 ± 700 nM
EC50 (SARS-CoV-2; [4]): 11.3 ± 2.1 µM
CC50 (in vitro [3]): 8.7 ± 0.8 µM
EC50 (HCoV-229E): 600 ± 300 nM
CC50 (in vitro [2]): 89.8 ± 2.8 µM

CCCOc1ccc(-c2cc(OCCN3CCc4cc(OC)c(OC)cc4C3)c3ccc(OC)cc3n2)cc1 [Compound 4g]
EC50 (SARS-CoV-2; [4]): > 40 µM

CCCOc1ccc(-c2cc(OCCN(CC)CC)c3c(OC)ccc(OC)c3n2)cc1 [Compound 7a]
EC50 (HCoV-OC43): 2000 ± 200 nM
EC50 (SARS-CoV-2; [4]): 4.6 ± 0.2 µM
CC50 (in vitro [3]): 9.9 ± 0.8 µM
EC50 (HCoV-229E): 700 ± 300 nM
CC50 (in vitro [2]): 24.6 ± 0.1 µM

CCCOc1ccc(-c2cc(OCCN3CCc4cc(OC)ccc4C3)c3c(OC)cc(OC)cc3n2)cc1 [Compound 6m, 5,7-Dimethoxy-4-[2-(6-methoxy-3,4-dihydroisoquinolin-2(1H)-yl)ethoxy]-2-(4-propoxyphenyl)quinoline]
EC50 (SARS-CoV-2; [4]): > 100 µM
Anti-SARS-CoV-2 activity EC50 (SARS-CoV-2; [8]): devoid of any activity
CC50 (in vitro [2]): > 100 µM

CCCOc1ccc(-c2cc(OCCN3CCCC3)c3c(OC)cc(OC)cc3n2)cc1 [Compound 6j]
EC50 (SARS-CoV-2; [4]): > 100 µM
CC50 (in vitro [2]): 16.1 ± 17 µM

CCCOc1ccc(-c2cc(OCCN(CC)CC)c3cccc(OC)c3n2)cc1 [Compound 5a]
EC50 (HCoV-OC43): 600 ± 100 nM
EC50 (SARS-CoV-2; [4]): 9.1 ± 3.05 µM
CC50 (in vitro [3]): 10.4 ± 0.8 µM
EC50 (HCoV-229E): 1300 ± 900 nM
CC50 (in vitro [2]): > 100 µM

CCCOc1ccc(-c2cc(OCCN(CC)CC)c3c(OC)c(OC)c(OC)cc3n2)cc1 [Compound 10a]
EC50 (SARS-CoV-2; [4]): 8.3 ± 1.8 µM
CC50 (in vitro [2]): 23.8 ± 8.3 µM

CCCOc1ccc(-c2cc(OCc3ccccn3)c3ccccc3n2)cc1 [Compound 1e]
EC50 (SARS-CoV-2; [4]): > 100 µM

CCCOc1ccc(-c2cc(OCCN(CC)CC)c3ccccc3n2)cc1 [Compound 1a]
EC50 (SARS-CoV-2; [4]): 6.5 ± 0.05 µM
EC50 (SARS-CoV-2; [7]): 6 µM
CC50 (in vitro [2]): 21.2 ± 4.2 µM

CCCOc1ccc(-c2cc(OCCN3CCCC3)c3cc(OC)c(OC)cc3n2)cc1 [Compound 8j]
EC50 (SARS-CoV-2; [4]): 9.6 ± 2.2 µM
CC50 (in vitro [2]): 12.9 ± 4.8 µM

CCCOc1ccc(-c2cc(OCCN3CCN(Cc4ccccc4)CC3)c3ccccc3n2)cc1 [Compound 1f]
EC50 (HCoV-OC43): 92300 ± 11000 nM
EC50 (SARS-CoV-2; [4]): 11.9 ± 5.5 µM
CC50 (in vitro [3]): > 100 µM
VeroE6 cells CC50 (VeroE6 cells): lacked cytotoxicity
EC50 (HCoV-229E): 61300 ± 32200 nM
CC50 (in vitro [2]): > 100 µM

CCCOc1ccc(-c2cc(OCCN(CC)CC)c3cc(OC)c(OC)cc3n2)cc1 [Compound 8a]
EC50 (HCoV-OC43): 1900 ± 400 nM
EC50 (SARS-CoV-2; [4]): 5.1 ± 1.4 µM
CC50 (in vitro [3]): 9.2 ± 0.1 µM
EC50 (HCoV-229E): 1800 ± 400 nM
CC50 (in vitro [2]): 70.3 ± 23.7 µM

CCCOc1ccc(-c2cc(OCCN3CCc4cc(OC)c(OC)cc4C3)c3ccccc3n2)cc1 [Compound 1g]
EC50 (SARS-CoV-2; [4]): > 100 µM

CCCOc1ccc(-c2cc(OC3CC4CCN3CC4)c3ccccc3n2)cc1 (stereo not shown) [Compound 1d]
EC50 (SARS-CoV-2; [4]): > 100 µM

CCCOc1ccc(-c2cc(OCCN3CCCC3)c3cccc(OC)c3n2)cc1 [Compound 5j]
EC50 (SARS-CoV-2; [4]): > 100 µM
CC50 (in vitro [2]): 30.8 ± 0.1 µM

CCCOc1ccc(-c2cc(OCCN3CCCC3)c3cc(OC)cc(OC)c3n2)cc1 [Compound 9j]
EC50 (HCoV-OC43): 22700 ± 2800 nM
IC50 [1]: > 30000 nM
remaining activity at 30 µM ([1]; in the presence of the highest concentration of tested compound (30 μM), read-out: helicase unwinding percentage of control): 57%
EC50 (SARS-CoV-2; [4]): 5.9 ± 2.4 µM
IC50 (SARS-CoV-2 nsp13 ATPase; [5]): > 30 µM
helicase ATPase percentage of control (SARS-CoV-2 nsp13 ATPase; [6]): 100%
CC50 (in vitro [3]): > 100 µM
EC50 (HCoV-229E): 40000 ± 20800 nM
CC50 (in vitro [2]): > 100 µM
remaining activity at 30 µM (SARS-CoV-2 nsp12 RdRp): 100%

CCCOc1ccc(-c2cc(OCCN3CCN(Cc4ccccc4)CC3)c3cc(OC)cc(OC)c3n2)cc1 [Compound 9f]
EC50 (SARS-CoV-2; [4]): > 100 µM
VeroE6 cells CC50 (VeroE6 cells): lacked cytotoxicity
CC50 (in vitro [2]): > 100 µM

CCCOc1ccc(-c2cc(OCCCN(C)C)c3ccccc3n2)cc1 [Compound 1b]
EC50 (SARS-CoV-2; [4]): > 100 µM

N#C[C@@]1(c2ccc3c(N)ncnn23)O[C@H](CO)[C@@H](O)[C@H]1O [GS-441524, reference compound]
EC50 (SARS-CoV-2; [4]): 0.7 ± 0.07 µM
CC50 (in vitro [3]): > 100 µM
EC50 (HCoV-229E): 900 ± 100 nM

CCN(CC)CCOc1cc(-c2ccccc2)nc2ccccc12 [Compound 12a]
EC50 (SARS-CoV-2; [4]): > 100 µM
Anti-SARS-CoV-2 activity EC50 (SARS-CoV-2; [8]): loss of activity
CC50 (in vitro [2]): 64.7 ± 29.8 µM

c1ccc(-c2cc(OCCN3CCCCC3)c3ccccc3n2)nc1 [Compound 14k]
EC50 (SARS-CoV-2; [4]): > 100 µM
Anti-SARS-CoV-2 activity EC50 (SARS-CoV-2; [8]): loss of activity

CCCOc1ccc(-c2cc(C(=O)NCCN(CC)CC)c3ccccc3n2)cc1 [Compound 11l]
EC50 (SARS-CoV-2; [4]): > 100 µM
Anti-SARS-CoV-2 activity EC50 (SARS-CoV-2; [8]): loss of activity

CCCOc1ccc(-c2cc(OCCCN(C)C)c3cc(OC)ccc3n2)cc1 [Compound 3b]
EC50 (SARS-CoV-2; [4]): > 100 µM

CCCOc1ccc(-c2cc(OCCN3Cc4ccccc4C3)c3c(OC)cc(OC)cc3n2)cc1 [Compound 6o, 4-[2-(1,3-Dihydro-2H-isoindol-2-yl)ethoxy]-5,7-dimethoxy-2-(4-propoxyphenyl)quinoline]
EC50 (SARS-CoV-2; [4]): > 100 µM
Anti-SARS-CoV-2 activity EC50 (SARS-CoV-2; [8]): devoid of any activity
CC50 (in vitro [2]): > 100 µM
